Experimental data: the METLIN SMRT retention time set (Domingo-Almenara et al. 2019)

Test: gradient 5% acetonitrile 3 min, to 50% in 2 min, to 85% in 15 min, held 3 min, 100 µL/min
Settings: column: Zorbax Extend-C18 2.1 x 50 mm; eluents: water / acetonitrile, 0.1% formic acid
Summary of the method: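 Data were gathered over 3 months by HPLC coupled to a quadrupole time-of-flight mass spectrometer, operated in positive and negative ionization mode. Mixtures of ~100 pure standards ran on a Zorbax Extend-C18 column (2.1 × 50 mm, 1.8 μm) at 100 μL/min, with water and acetonitrile each containing 0.1% formic acid and dead and dwell volumes of 40 μL and 900 μL. Retention time was read from adduct peaks picked by computer and checked manually.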

SMILES	RP-LC retention time
CCCn1cc(C2=CCN(C(=O)NCC3CCCO3)CC2)c2cccnc21 (centres undefined)	719 s
CC(C)c1cc(N2CCN(C(=O)c3ccc4c(c3)OCO4)CC2)nc2nncn12	610 s
CN(C)c1cc(C(N)=O)c2ccccc2n1	694 s
COc1cccc(NS(=O)(=O)c2cc3n(c2)CCN(C(C)C)C3=O)c1	733 s
Clc1cccc(Nc2nnc(-c3ccccc3)c3ccccc23)c1	790 s
COc1ccccc1-c1nc2cnccn2c1NCCC(=O)NC1CCCC1	618 s
C=C1C(=O)C2=CC1CCC(=O)C1(C)CCC(OC(C)=O)C(C)(C)C1CC2O (centres undefined)	718 s
Cc1ccsc1C(=O)Nc1cccc(-c2nnc3n2CCCC3)c1	640 s
CCN1CCCn2nc(C3CCN(C(=O)c4cncc(Br)c4)CC3)cc2C1=O	659 s
CCS(=O)(=O)N1CC(=O)N(c2cccc(Cl)c2)C(C)(C(=O)NC2CCCCCC2)C1 (centres undefined)	895 s
O=C(NCCn1ncccc1=O)C1(c2cccs2)CCCC1	652 s
O=C(Nc1ccc(C(=O)N2CCOCC2)cc1)c1cnn2c(C(F)F)cc(-c3ccccc3)nc12	892 s
O=C(Cn1ccn2nc(-c3ccccc3)c(CO)c2c1=O)NCCC1=CCCCC1	857 s
CCCCN1C(=O)c2ccccc2C(C(=O)NCc2ccncc2)C12CCCCC2 (centres undefined)	662 s
CCc1nnc(-c2nnc(NCCOc3ccccc3OC)c3ccccc23)o1	790 s
CC(=O)Nc1ccc(Cc2nc(-c3cccc(-c4ccn[nH]4)c3)no2)cc1	798 s
CCc1nc(-c2csc(S(=O)(=O)N3CCCC(C(=O)Nc4ccc(F)cc4C)C3)c2)no1 (centres undefined)	1020 s
COc1ccccc1S(=O)(=O)NCCc1ccsc1	824 s
Nc1nnc(CCS(=O)(=O)c2ccccc2)o1	565 s
Cc1cc(C)c(NC(=O)C2CCCN(c3nc4ccccc4nc3C(F)(F)F)C2)c(C)c1 (centres undefined)	701 s
O=C(NCc1cccs1)c1nnc(-c2ccc(S(=O)(=O)N3CCCC3)cc2)o1	849 s
CCCOc1cc(S(=O)(=O)NCCCn2ccnc2)ccc1Cl	596 s
CC(C)C(NC(=O)Nc1ccc2c(c1)OCCO2)C(=O)N1CCc2ccccc21 (centres undefined)	609 s

SMILES	RP-LC retention time
O=C(CCC1CCCN(c2cc(NC3CC3)ncn2)C1)N1CCCN(c2ncccn2)CC1 (centres undefined)	618 s
CCOc1ccc2nc(C(=O)NCc3ccc(OC(C)C)cc3)cn2n1	940 s
COc1ccc(NC(=O)C(C)C2CCN(C(=O)Nc3ccccc3)CC2)c(OC)c1 (centres undefined)	810 s
COc1ccc(-c2nc3cnccn3c2Nc2ccc(C(N)=O)cc2)cc1	612 s
COc1ccc(CC(=O)NCc2ccc3c(c2)ncn3C(C)C)cc1	600 s
O=C(CN1C(=O)c2ccccc2C1=O)Nc1nnc(C2=COCCO2)o1	609 s
CCCCN(C)Cc1nnn(-c2ccc(F)cc2)c1C	617 s
COc1ccccc1NC(=O)CSc1cc(N2CCN(c3ccccc3OC)CC2)ncn1	1050 s
COc1cc(NC(=O)CN2CC(C)Sc3ccccc32)cc(OC)c1 (centres undefined)	971 s
Cc1sc(NC(=O)c2cccc(Cl)c2)nc1-c1ccc2c(c1)NC(=O)C(C)O2 (centres undefined)	1040 s
COCCCNC(=O)CSc1nccc2c1ccn2Cc1ccccc1	683 s
COc1ccc(OC)c(CNC(=O)[C@@H]2[C@H](c3cc(OC)c(OC)c(OC)c3)c3cc4c(cc3[C@H](O)[C@H]2CO)OCO4)c1	721 s
N#Cc1cccc(CN2CCC(F)(F)C(CO)C2)c1 (centres undefined)	551 s
Cc1ccc(CNC(=O)C2(C)Cn3nc(C(=O)NCCC(C)C)cc3C(=O)N2C)cc1 (centres undefined)	754 s
Cc1ccc(-c2coc(-c3ccc(NC(=O)NC4CCCC4)cc3)n2)c(C)c1	1180 s
O=C1COc2ccccc2N1Cc1nc(-c2ccccc2)no1	971 s
COC(=O)c1sccc1NC(=O)N1CCc2c([nH]c3ccccc23)C1c1ccc(OC)cc1 (centres undefined)	1230 s
Cc1cccc(-c2noc(-c3nnn4c3COC(c3ccc(F)cc3)C4)n2)c1 (centres undefined)	1210 s
Cc1ccc(NC(=O)Cn2nc(N3CCOCC3)c3ccccc3c2=O)c(Cl)c1	871 s
Cc1cc(C)cc(NC(=O)Cn2nc3n(c2=O)CCCCC3)c1	703 s
CS(=O)(=O)N1CCN(C(=O)Cc2csc(Nc3ncccn3)n2)CC1	601 s
Cc1cccn2cc(-c3ccc(NS(=O)(=O)c4ccccc4)cc3)nc12	617 s
COc1cc(N2C=C(C#N)S(=O)(=O)c3ccc(Cl)cc32)c(OC)cc1Cl	1050 s

SMILES	RP-LC retention time
CN(C)CCNCc1ccc(-c2ccc(Br)cc2)o1	598 s
CC1=C(c2ccc(C)cc2)S(=O)(=O)N=C1N1CCCN(C(=O)Cc2ccsc2)CC1	847 s
Cc1ccc(NC(=O)Cn2cnc3c(sc4nc(-c5ccccc5)ccc43)c2=O)c(Cl)c1	1120 s
CCCNc1cc(N2CCCC(CCC(=O)Nc3ccc4c(c3)OCO4)C2)ncn1 (centres undefined)	691 s
O=C(CSc1nccc(-c2ccc3c(c2)OCO3)n1)c1ccc2c(c1)OCO2	888 s
O=C(Cc1c(F)cccc1Cl)Nc1cnn(-c2ncc(N3CCCC3)cn2)c1	771 s
CCOC(=O)CCC(=O)NCC1CN(c2ccc(Cl)c(Cl)c2)C(=O)O1 (centres undefined)	774 s
CCn1c(=O)sc2cc(S(=O)(=O)N3CCC(C(=O)NCc4ccc(C)o4)CC3)ccc21	861 s
CC1CCN(c2cc(-n3cnc(C(=O)N4CCC(C(N)=O)CC4)c3)ncn2)CC1	669 s
Cc1cc(C(=O)Nc2c3c(nn2-c2ccccc2)CCC3)nn1C	733 s
COc1ccc(S(=O)(=O)Nc2cc(-c3cn4ccc(C)cc4n3)ccc2C)cc1OC	652 s
COCCCNC(=O)C1CCN(c2nc3ccc(-c4ccccc4)nc3s2)CC1	835 s
O=C(CNC(=O)c1cccc(Br)c1)NCc1cscn1	652 s
CCn1ccc(C(=O)N2C[C@@H]3CCCN4CCC[C@@H]([C@H]34)[C@H]2CCCC(=O)N2CCOCC2)n1	580 s
CNC(=O)N1CCCC(c2cccc(C(=O)N3CCN(c4cccc(Cl)c4)CC3)c2)C1 (centres undefined)	895 s
COc1ccc(CNC(=O)c2c(C)oc3ccn(C)c(=O)c23)cc1	824 s
O=C(c1csc(N2CCCC2)n1)N1CCCC1	657 s
CCc1ccc(-c2cc3c(=O)n(Cc4noc(CN5CCCC5)n4)ccn3n2)cc1	694 s
COc1ccc(NC(=O)Cn2ccnc2-c2ccnc(N3CCCC3)c2)cc1OC	573 s
Cc1cc(C)c2c(-n3cccc3)c(C(=O)N3CCN(c4ccccn4)CC3)sc2n1	675 s
Oc1cccc(-c2nc3cnc(Br)cn3c2Nc2cccc(C(F)(F)F)c2)c1	902 s
Cc1cnc(C(=O)NC2C[C@H]3CC[C@@H](C2)N3C(=O)CCC2CCCC2)cn1 (some centres undefined)	762 s
CC(Oc1ccccc1)C(=O)N1CC(n2ccnc2)C1 (centres undefined)	584 s

SMILES	RP-LC retention time
CCCNC(=O)C1CCN(c2nc3ccc(-c4ccccc4)nc3s2)CC1	906 s
O=C(C1CCCN1c1nnc(N2CCCC2=O)s1)N1CCN(c2ccccn2)CC1 (centres undefined)	547 s
CO[C@H]1CN(C2CCN(S(=O)(=O)Cc3ccccc3F)CC2)[C@H]1c1ccncc1	620 s
CCOc1ccccc1C(=O)N(C)CC1(C)CCOCC1	794 s
O=C(Nc1ccc(-c2nc3cccnc3s2)cc1)c1ccccc1Cl	893 s
CCN(Cc1ccccc1)C(=O)CN1C(=O)C2CCCCN2c2ccc(C(=O)N3CCCC3)cc21 (centres undefined)	892 s
Cc1cc(C)cc(C(=O)Nc2cccn3nc(C4CCC4)nc23)c1	1070 s
CC1(C)C(=O)N(CC(=O)Nc2c3c(nc4ccccc24)CCCC3)c2ccccc21	664 s
Cc1ccc(C)c(NS(=O)(=O)c2cc3c(s2)CCN(C(=O)C2CCC2)C3)c1	859 s
O=S(=O)(c1ccccc1F)N1CCC(c2noc(-c3ccc(F)cc3)n2)CC1	1110 s
COc1ccc(CNC(=O)N2CCN(Cc3nc4ccc(Cl)cc4o3)CC2)cc1	711 s
O=C(Nc1cc(-c2cccs2)nn1CCO)C1(c2ccccc2)CCOCC1	734 s
CCOC(=O)c1c(C)[nH]c(C(=O)N2CCC(CC(=O)NCc3ccccc3)CC2)c1C	762 s
Cc1c(C(=O)NC2CC2)cnn1-c1ccc(-c2nc(C3CC3)no2)cn1	825 s
Cc1nc(-c2cc3ccccc3nc2N2CCN(c3ccccc3)CC2)no1	666 s
COc1ccc(NC(=O)CSc2nccc(N3CCN(c4cc(C)ccc4C)CC3)n2)cc1OC	774 s
CN(C)CCCN1c2ccccc2Sc2ccc3ccccc3c21	772 s
CCOC(=O)c1c(C)oc2nc(C)nc(NC3CCN(Cc4ccccc4)CC3)c12	597 s
CC(=O)c1ccc(NC(=O)Cn2c(-c3cnccn3)nc(C)c(C)c2=O)cc1	680 s
O=c1c2oc3ccccc3c2ncn1Cc1nc(-c2ccc3c(c2)OCO3)no1	909 s
